# Patent publication US20170071944A1, “MODULATORS OF TOLL-LIKE RECEPTORS FOR THE TREATMENT OF HIV” (Gilead Sciences, Inc., priority 2015, published 2017)
# Tests used:
# [1] = test system: HIV-specific polyfunctional CD8 T cells; experiment: Induced HIV-specific polyfunctional CD8+ T cells in PBMC cultures from HIV-1 infected subjects on cART; format: cell-based, human; settings: for Median HIV-specific polyfunctional CD8 T cells (% proliferating CD8+ cells double positive for IFN-γ and TNF-α): 5 subjects, vehicle 0.73% (Example 15 group), 0.13% (Example 98 group)
# HIV-infected CD4 T cells = experiment: PGT121 antibody-mediated killing of HIV-infected CD4 T cells, monocyte effector model; format: cell-based, human; settings: monocytes from 1 subject, 11 or 33 nM, 1 day
# Source text: NK cells and monocytes mediate antibody-dependent cellular cytotoxicity (ADCC) and antibody-dependent cellular phagocytosis (ADCP) respectively. To assess the ability of the compound of Example 15 to enhance ADCC and ADCP, two models were developed using monocytes or PBMCs as effector cells and HIV-infected CD4 T cells as target cells. PBMCs were isolated from 3 healthy subjects' leukaphereses (AllCells, participant IDs A4593, A4596, A4606), as described above. CD4 T cells were isolated from PBMCs using negative selection magnetic beads (EasySep, StemCell Technologies). CD4 T cells were spinfected with HIV-1 isolate 92HT593 (NIH AIDS Reagent Program) and cultured for 5 days at 37° C. For the PBMC model, autologous PBMCs were cultured for 5 days with vehicle control (DMSO) or Example 15 at 100 or 1000 nM. […] Marker staining was measured by flow cytometry using a LSR Fortessa (BD Biosciences) and analyzed with FlowJo software (TreeStar). The percent killing was determined by calculating the reduction of p24+ CD4+ T cells mediated by PGT121 antibody relative to a no antibody control.
# PBMCs (FIG. 3) or monocytes (FIG. 4) were treated with DMSO or TLR8 agonist for 5 days (FIG. 3) or 1 day (FIG. 4) and then co-cultured for 1 day with autologous HIV-infected CD4 T cells−/+anti-HIV Env antibody PGT121. Reductions in % p24+ CD4+ T cells, relative to no antibody control, were measured by FACS. […]
structure (smiles),measurement,setting,value
CCCC[C@H](CO)Nc1nc(N)nc2cccnc12 [Example 15],Patients in whom increases were seen,[1]; 100 nM,3 of 5
same,Median HIV-specific polyfunctional CD8 T cells (% proliferating CD8+ cells double positive for IFN-γ and TNF-α),[1]; 100 nM with HIV peptide pool,0.99%
same,Patients in whom increases were seen,[1]; 1000 nM,4 of 5
same,Increase of median HIV-specific polyfunctional CD8 T cells,"[1]; 1000 nM combined with the HIV specific peptide pool, p<0.05",2.7 fold
same,Median HIV-specific polyfunctional CD8 T cells (% proliferating CD8+ cells double positive for IFN-γ and TNF-α),[1]; 1000 nM with HIV peptide pool,2.01%
same,PGT121-mediated killing of HIV-infected CD4+ T cells compared to the DMSO control,HIV-infected CD4 T cells,markedly enhanced
